One may read the Ki as the dissociation constant of the complex between target and ligand, obtained from inhibition or displacement.

Counter-ions that a name gives are not always drawn.

From US20240425491A1, “HETEROARYL COMPOUNDS USEFUL IN THE TREATMENT OF COGNITIVE DISORDERS” (University College Cardiff Consultants Limited, priority 2021, published 2024) come the findings set out here.

In assay [1] the target is T1, human α5β3γ2 GABAARs in mouse L(tk−) cells (Homo sapiens, UniProt P18507+P31644).
T1 construct: expressed in transfected cells; host or cells: mouse L(tk−) cells, dexamethasone-inducible vector pMSGneo
The experiment in a line: In vitro electrophysiological recording assay (α5-GABAAR relative efficacy), QPatch. The format is cell-based. The conditions noted are these: for α5-GABAAR Relative Efficacy (to DMCM), Qpatch: GABA EC10-20. From the text:
(§1) Mouse L(tk^−) cells stably expressing human α1β3γ2, α2β3γ2, α3β3γ2, α5β3γ2 GABAARs generated by transfection of the individual subunits in the dexamethasone-inducible expression vector pMSGneo in mouse L(tk^−) cells (Hadingham et al., 1993, Mol. Pharmacol. 43:970-975 and 1993, Mol. Pharmacol. 44:1211-1218) were used for binding and functional assays. For certain compounds, HEK293 cells stable expressing the human α1β3γ2L, α2β3γ2L, α3β3γ2L and α5β3γ2L GABAA receptors were used to evaluate their functional effects in a SyncroPatch electrophysiology assay.
For QPatch electrophysiology testing, 1 μM dexamethasone was added to the culture medium of L(tk^−) cells 24 hours before the recordings were performed. Cells were typically used for electrophysiology experiments 72-96 hours after splitting.
The efficacy of modulators was evaluated using either the automated patch-clamp platform QPatch16 (Sophion, Copenhagen, Denmark) or the SyncroPatch 384i (Nanion Technologies, Germany). Cells were harvested from flasks by enzymatic dissociation and re-suspended in serum-free medium.
For QPatch recordings, all experiments were carried out at room temperature (20-22° C.) using a standard whole cell procedure and physiological solutions. Gigaseals were formed upon execution of a combined suction/voltage protocol with subsequent increased suction leading to the whole-cell configuration. The currents recorded were acquired at 1 KHz and filtered at 0.3 KHz using a Bessel filter. Whole-cell currents were measured at a holding potential of −65 mV.
For QPatch recordings, the extracellular solution contained of (in mM): 145 NaCl, 4 KCl, 1 MgCl2, 2CaCl2, 10 HEPES, 10 D-glucose (pH 7.4), and the intracellular solution consisted of (in mM): 96 KCl, 28 CsCl, 25 KOH, 4.3 CaCl2), 1.4 MgCl2, 10 EGTA, HEPES, 3 MgATP (pH 7.2). The osmolarities of the extracellular and intracellular solutions were 305 and 295 mOsm respectively.
The effects of modulators were evaluated in the presence of a submaximal GABA concentration, giving typically 10-20% activation (GABA EC10-20) of the response elicited by a saturating GABA concentration. For QPatch recordings, to check and ensure baseline current stability before compound addition, five consecutive applications of GABA EC10-20 alone (each application with a 2 s duration, separated by minimum 1 min wash off periods) were performed before compound addition. The test compound was applied using the pipetting system of the QPatch system 1 min at least prior to co-application with GABA EC10-20. For SyncroPatch recordings, GABA EC20 alone was applied three times (1 s long applications, with wash steps in-between) before compound addition. This was followed by a 1-2 min pre-incubation with the test compound and then re-application of GABA EC10-20 in the presence of the compound. Finally, following a further wash step, a saturating concentration of GABA was applied, allowing the accurate evaluation for each cell of the percentage baseline activation elicited by the submaximal GABA applied.
The compounds were first dissolved in DMSO as a 10 mM stock and then further diluted to the testing concentrations so that the final DMSO concentration in the extracellular recording solution was kept constant at 0.1% for the QPatch recordings, or 0.2% for the SyncroPatch recordings.
The % efficacy of modulators was determined from the GABA elicited currents recorded in the presence and absence of the test compound, using the formula:
[((compound peak current−leak)−(GABA peak current−leak))/(GABA peak current−leak)]*100,
where ‘leak’ is the leak baseline current at −65 mV, ‘compound peak current’ is the current elicited by co-application of compound and GABA, and ‘GABA peak current’ is the current elicited by GABA alone during the 5th GABA application. The results were presented as ‘relative efficacy’ for each compound generally at a concentration equal or higher than 100 times their determined Ki. […]
Background: The patch-clamp technique gives a direct electrical read-out from membranes.

For assay [2], the target named is T2, human recombinant GABAAR containing α5β3γ2 subunits (benzodiazepine site) (Homo sapiens, UniProt P18507+P31644).
T2 construct: expressed in transfected cells; host or cells: mouse L(tk−) cells, dexamethasone-inducible vector pMSGneo
The experiment in a line: In vitro radioligand binding assay (α5-GABAAR Ki). The note with it: inhibition of [3H]Ro15-1788 binding, membranes of L(tk−) cells expressing human α5β3γ2; read-out: α5-GABAAR Ki.
From the text: as §1
L(tk^−) cells stably expressing human α1β3γ2, α2β3γ2, α3β3γ2, α5β3γ2 GABAARs were maintained in DMEM F12 medium supplemented with 10% Foetal Bovine Serum, 1% Penicillin/Streptomycin and 1 mg/mL Geneticin G418 in an incubator at 37° C. with a humidified atmosphere with 5% CO2.
The affinity (Ki) of compounds for the benzodiazepine site of human recombinant GABAARs was measured by their ability to inhibit the binding of the selective benzodiazepine antagonist [^3H] Ro15-1788 ([^3H] flumazenil).
L(tk^−) cells expressing human recombinant GABAAR containing α1β3γ2, α2β3γ2, α3β3γ2, α5β3γ2 subunits were harvested and membranes were prepared for each receptor combination in phosphate buffer (K2PO4 10 mM, pH 7.0) (Hadingham et al. (1992) Proc. Natl. Acad. Sci. USA; 89 (14): 6378-82). Protein concentration, receptor expression and the Kd of [^3H] Ro15-1788 were determined before Ki values of compounds were evaluated. For Kd evaluation, saturation binding curves were obtained by incubating membrane with various concentrations of [^3H] Ro15-1788 (82.5 Ci/mM), with nonspecific binding measured in the presence of 1 μM TP003.
For Ki evaluation, cell membranes were incubated with 4 nM [^3H] Ro15-1788 along with a range of concentrations of test compound. Nonspecific binding was determined using 1 μM TP003. All incubations were performed for 1 hour at 4° C. in assay buffer. The total assay volume was 0.5 mL, containing 100 μg membrane protein/well α1β3γ2, α2β3γ2, α3β3γ2 and 50 μg membrane protein/well for α53γ2. Incubations were terminated by filtration and washing with ice cold Tris-HCl buffer (50 mM, pH=7.4) over Whatman GF/B filters and the radioactivity of the filters was measured using liquid scintillation counting.
The % inhibition of [^3H] Ro15-1788 binding was plotted as a function of compound concentration and the IC50 calculated. From the IC50, the affinity (Ki) was calculated using the method of Cheng and Prusoff using the Kd values obtained for [^3H] Ro15-1788.

T1 sequence (P31644 32-462): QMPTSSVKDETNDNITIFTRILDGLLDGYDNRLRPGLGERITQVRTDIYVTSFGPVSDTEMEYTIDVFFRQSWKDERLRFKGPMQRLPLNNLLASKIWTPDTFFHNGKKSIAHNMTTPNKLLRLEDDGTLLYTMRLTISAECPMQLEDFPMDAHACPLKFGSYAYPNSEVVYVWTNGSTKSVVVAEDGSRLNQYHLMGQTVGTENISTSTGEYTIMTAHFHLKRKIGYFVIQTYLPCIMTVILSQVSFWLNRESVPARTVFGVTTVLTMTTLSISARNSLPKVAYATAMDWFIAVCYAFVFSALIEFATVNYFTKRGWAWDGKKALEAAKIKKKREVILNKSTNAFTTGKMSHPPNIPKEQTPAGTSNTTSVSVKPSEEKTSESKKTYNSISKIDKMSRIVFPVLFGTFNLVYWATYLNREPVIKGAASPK
T1 sequence (P28472 26-473 partner): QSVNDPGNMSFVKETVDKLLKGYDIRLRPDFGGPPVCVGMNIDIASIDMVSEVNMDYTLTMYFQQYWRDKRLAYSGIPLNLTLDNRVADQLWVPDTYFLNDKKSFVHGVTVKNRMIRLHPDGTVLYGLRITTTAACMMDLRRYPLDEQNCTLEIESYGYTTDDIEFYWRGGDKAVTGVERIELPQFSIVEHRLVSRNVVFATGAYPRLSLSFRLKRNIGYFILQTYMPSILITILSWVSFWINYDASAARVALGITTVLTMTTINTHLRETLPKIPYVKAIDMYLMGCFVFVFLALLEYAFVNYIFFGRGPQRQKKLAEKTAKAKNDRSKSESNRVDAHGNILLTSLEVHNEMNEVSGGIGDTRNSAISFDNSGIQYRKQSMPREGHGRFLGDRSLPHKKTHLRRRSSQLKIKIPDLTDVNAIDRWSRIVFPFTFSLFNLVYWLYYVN
T1 sequence (P18507 40-475): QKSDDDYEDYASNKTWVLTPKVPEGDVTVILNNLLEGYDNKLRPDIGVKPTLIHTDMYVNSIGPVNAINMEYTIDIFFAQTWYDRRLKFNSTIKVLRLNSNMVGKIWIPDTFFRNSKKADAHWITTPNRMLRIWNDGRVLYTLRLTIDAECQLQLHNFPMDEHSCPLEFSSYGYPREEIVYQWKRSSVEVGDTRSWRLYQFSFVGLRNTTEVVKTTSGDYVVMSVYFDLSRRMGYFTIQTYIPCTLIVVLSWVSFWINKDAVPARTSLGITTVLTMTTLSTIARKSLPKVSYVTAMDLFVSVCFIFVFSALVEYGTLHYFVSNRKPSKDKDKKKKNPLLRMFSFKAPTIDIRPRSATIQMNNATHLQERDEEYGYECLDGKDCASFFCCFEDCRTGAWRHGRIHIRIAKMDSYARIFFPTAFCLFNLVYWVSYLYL
T2 sequence (P31644 32-462): as the sequence (P31644 32-462) above
T2 sequence (P28472 26-473 partner): as the sequence (P28472 26-473 partner) above
T2 sequence (P18507 40-475): as the sequence (P18507 40-475) above

In the case of `CCc1c(C(=O)OC)ncc2[nH]c3cc(OC)c(OC)cc3c12` [DMCM, methyl-6,7-dimethoxy-4-ethyl-beta-carboline-3-carboxylate, reference compound], the “attenuation of GABA-induced currents (efficacy)” value in assay [1] (n=5, reference for normalising relative efficacy) is −57±4%.
With `COc1cc(-n2ccnc2)ccc1NC(=O)c1c(-c2ccccc2)noc1C` [Example 2, N-(4-Imidazol-1-yl-2-methoxy-phenyl)-5-methyl-3-phenyl-isoxazole-4-carboxamide], in assay [2], the inhibitory constant (Ki) amounted to 2.4 nM. Moreover, the “α5-GABAAR Relative Efficacy (to DMCM), Qpatch” value (“α5-GABAAR Relative Efficacy” below) in assay [1] (Conc 1 μM) was −0.54.
For `COc1nc(-n2ccnc2)ncc1NC(=O)c1c(-c2ccccc2)noc1C` [Example 3, N-(2-Imidazol-1-yl-4-methoxy-pyrimidin-5-yl)-5-methyl-3-phenyl-isoxazole-4-carboxamide] the same measures were 32.8 nM and −0.69.
For `COc1cc(-n2ccnc2)ccc1NC(=O)c1c(C)nnn1-c1ccccc1` [Example 5, N-(4-(1H-Imidazol-1-yl)-2-methoxyphenyl)-4-methyl-1-phenyl-1H-1,2,3-triazole-5-carboxamide], the Ki in assay [2] was determined as 50.7 nM. For the same compound, the “α5-GABAAR Relative Efficacy” value in assay [1] (Conc 1 μM) is on record as −0.82.
As to `COc1nc(-c2c(C)noc2C)ccc1NC(=O)c1c(-c2ccccc2)noc1C` [Example 6, N-[6-(3,5-Dimethylisoxazol-4-yl)-2-methoxy-3-pyridyl]-5-methyl-3-phenyl-isoxazole-4-carboxamide], the Ki in assay [2] amounted to 33.1 nM. The “α5-GABAAR Relative Efficacy” value in assay [1] (Conc 10 μM) was −0.22.
On to `COc1nc(-c2cncnc2)ccc1NC(=O)c1c(-c2ccccc2)noc1C` [Example 7, N-(2-Methoxy-6-pyrimidin-5-yl-3-pyridyl)-5-methyl-3-phenyl-isoxazole-4-carboxamide], for which the Ki in assay [2] was 2 nM. Also, in assay [1] (Conc 0.3 μM), the “α5-GABAAR Relative Efficacy” value is −0.77.
As for `COc1cc(-c2cncnc2)cnc1NC(=O)c1c(-c2ccccc2)noc1C` [Example 9, N-(3-Methoxy-5-pyrimidin-5-yl-2-pyridyl)-5-methyl-3-phenyl-isoxazole-4-carboxamide], the Ki in assay [2] amounted to 3.2 nM. Also, the “α5-GABAAR Relative Efficacy” value in assay [1] (Conc 1 μM) is recorded as −0.21.
Turning to `COc1nc(-c2cncc(N)c2)ccc1NC(=O)c1c(-c2ccccc2)noc1C` [Example 11, N-[6-(5-Amino-3-pyridyl)-2-methoxy-3-pyridyl]-5-methyl-3-phenyl-isoxazole-4-carboxamide], in assay [2], the Ki came out at 2.9 nM. Besides, the “α5-GABAAR Relative Efficacy” value in assay [1] (Conc 0.3 μM) is reported as −0.84.
As to `COc1cc(-c2cnn(C)c2)ccc1NC(=O)c1c(-c2ccccc2)noc1C` [Example 12, N-[2-Methoxy-4-(1-methylpyrazol-4-yl)phenyl]-5-methyl-3-phenyl-isoxazole-4-carboxamide], the Ki in assay [2] stood at 17.1 nM. Besides, the “α5-GABAAR Relative Efficacy” value in assay [1] (Conc 3 μM) was −0.68.
Take `COc1cc(-c2cncnc2)ccc1NC(=O)c1c(-c2ccccc2)noc1C` [Example 13, N-(2-Methoxy-4-pyrimidin-5-yl-phenyl)-5-methyl-3-phenyl-isoxazole-4-carboxamide]: the Ki in assay [2] was found to be 3.6 nM. Moreover, the “α5-GABAAR Relative Efficacy” value in assay [1] (Conc 1 μM) is recorded as −0.85.
In the case of `COc1nc(-c2cnc(CN)nc2)ccc1NC(=O)c1c(-c2ccc(F)cc2)noc1NCCCCl` [Example 211, N-[6-[2-(Aminomethyl)pyrimidin-5-yl]-2-methoxy-3-pyridyl]-5-(3-chloropropylamino)-3-(4-fluorophenyl) isoxazole-4-carboxamide hydrochloride], the Ki in assay [2] came out at 1.3 nM.
On the same count and under the same terms, the same measure for `Cc1onc(-c2ccccc2)c1C(=O)Nc1ccc(-n2ccnc2)[nH]c1=O` [Example 212, N-(6-Imidazol-1-yl-2-oxo-1H-pyridin-3-yl)-5-methyl-3-phenyl-isoxazole-4-carboxamide]: 313 nM.
Regarding `COc1nc(-c2ccc(C=O)cc2)ccc1NC(=O)c1c(-c2ccccc2)noc1C` [Example 220, N-[6-(4-formylphenyl)-2-methoxy-3-pyridyl]-5-methyl-3-phenyl-isoxazole-4-carboxamide], the Ki in assay [2] stood at 3.4 nM.
Consider `COc1nc(-c2ccc(CCl)cc2)ccc1NC(=O)c1c(-c2ccccc2)noc1C` [Example 224, N-[6-[4-(chloromethyl)phenyl]-2-methoxy-3-pyridyl]-5-methyl-3-phenyl-isoxazole-4-carboxamide], for which the Ki in assay [2] was found to be 220 nM.
Still for that read-out and setting: the same measure for `COc1nc(-c2ccc(CN3CCOCC3)cc2)ccc1NC(=O)c1c(-c2ccccc2)noc1C` [Example 225, N-[2-methoxy-6-[4-(morpholinomethyl)phenyl]-3-pyridyl]-5-methyl-3-phenyl-isoxazole-4-carboxamide]: 7.7 nM; for `COc1nc(-c2ccc(CN3CC4(COC4)C3)cc2)ccc1NC(=O)c1c(-c2ccccc2)noc1C` [Example 226, N-[2-methoxy-6-[4-(2-oxa-6-azaspiro[3.3]heptan-6-ylmethyl)phenyl]-3-pyridyl]-5-methyl-3-phenyl-isoxazole-4-carboxamide]: 3.3 nM; for `Cc1onc(-c2ccccc2)c1C(=O)Nc1ccc(-c2cnoc2)nc1OC(C)C` [Example 227, N-(2-isopropoxy-6-(isoxazol-4-yl)pyridin-3-yl)-5-methyl-3-phenyl-isoxazole-4-carboxamide]: 0.5 nM.
Same read-out and setting: then `COc1nc(-c2ccc(CN3CC4COCC4C3)cc2)ccc1NC(=O)c1c(-c2ccccc2)noc1C` (stereo not drawn) [Example 233, N-(2-methoxy-6-(4-((tetrahydro-1H-furo[3,4-c]pyrrol-5 (3H)-yl)methyl)phenyl)pyridin-3-yl)-5-methyl-3-phenylisoxazole-4-carboxamide], with 7 nM.
